Source: patent US9221853B2, “Glyphosate dimethylamine salt crystal, preparation method and use thereof” (ZHEJIANG WYNCA CHEMICAL INDUSTRY GROUP CO., LTD., priority 2009, dated 2015)
Where a name gives a salt, the structure may show the parent alone.

Columns and labels:
[1] = system: perennial weeds: Alligator Alternanthera Herb (Alternanthera philoxeroides); conditions: CD Observation Method visual score (2.0-10.0); 60 g/mou glyphosate, field spray; observed 2.5, 5, 7 and 11 days after application
Excerpt: (§1) A CD Observation Method was used to make records.
(§2) Assessment Criteria of the CD Observation Method
(§3) A visual method was used with the following criteria: • 2.0 mild poisoning symptom in a spot of leaves • 4.0 a few leaves lost green or turned yellow while the plant growth was substantially normal • 6.0 leaves lost green or turned yellow or some leaves withered, while the stalk was nearly normal, and was yet able to grow slowly • 8.0 caulicle or inflorescence and rachis of leaves withered; most of stalk turned yellow or lost green mildly and was unable to grow normally; the plant died locally • 10.0 the whole plant died

[2] = system: annual weeds: Common Crabgrass (Digitaria sanguinalis), Goosegrass (Eleusine indica), Bitter Fleabane (Erigeron acer); conditions: CD Observation Method visual score (2.0-10.0); 60 g/mou glyphosate, field spray; observed 2.5, 5, 7 and 11 days after application
Excerpt: as §1, §2, §3

weeds = conditions: field plot 2 m×2.5 m, spray, effective ingredient 60 g/mou (based on glyphosate) diluted by water to 30 l/mou
Method: A sample was taken in an effective ingredient amount of 60 g/mou (based on glyphosate), and was diluted by water to 30 l/mou. The resulting diluted liquor was evenly sprayed into a test field plot with an area of 2 m×2.5 m, repeated twice. […] A CD Observation Method was used to make records.

## O=C(O)CNCP(=O)(O)O [dimethylamine salt of N-phosphonomethyl glycine]
[1]
  Control on perennial weeds: 9.4
[2]
  Control on annual weeds: 9.6
weeds
  Days for weeds to die: 9~11 d
